How the values were obtained:
Type in all cases: functional
T47D = assay: Growth inhibitory activity aganist T47D cells done for 48 hr at 37 degree C with compound; details: Homo sapiens
NCI-H1299 = assay: Growth inhibitory activity against H1299 cells done for 48 h at 37 degree C with compound; details: Homo sapiens, NCI-H1299, 48 h
DLD-1 = assay: Growth inhibitory activity against DLD-1 cells done for 48 h at 37 degree C with compound; details: Homo sapiens, DLD-1, 48 h
Mus musculus = organism: Mus musculus; assay: Inhibition of tumor growth in mice with MX-1 tumor after treatment in combination with paclitaxel

Clc1ccc(-c2noc(-c3occc3Br)n2)cc1
GI50 (T47D): 0.12 µM | GI50 (NCI-H1299): > 10 µM | GI50 (DLD-1): 0.51 µM

FC(F)(F)c1ccc(-c2noc(-c3sccc3Cl)n2)nc1
GI50 (T47D): 0.35 µM | GI50 (NCI-H1299): > 10 µM | GI50 (DLD-1): 0.93 µM

FC(F)(F)c1ccc(-c2noc(-c3occc3Br)n2)cc1
GI50 (T47D): 0.32 µM | GI50 (NCI-H1299): > 10 µM | GI50 (DLD-1): 0.13 µM

Cc1ccc(-c2noc(-c3sccc3Cl)n2)cc1
GI50 (T47D): 2.2 µM | GI50 (NCI-H1299): > 10 µM | GI50 (DLD-1): 0.85 µM

FC(F)(F)c1ccc(-c2noc(-c3sccc3Cl)n2)cc1
GI50 (T47D): 0.22 µM | GI50 (NCI-H1299): > 10 µM | GI50 (DLD-1): 0.77 µM

Clc1ccc(-c2noc(-c3sccc3Cl)n2)cc1
GI50 (T47D): 0.19 µM | GI50 (NCI-H1299): > 10 µM | GI50 (DLD-1): 0.4 µM

FC(F)(F)c1ccc(-c2noc(-c3occc3Cl)n2)cc1
GI50 (T47D): 0.17 µM | GI50 (NCI-H1299): > 10 µM | GI50 (DLD-1): 0.35 µM

Clc1ccc(-c2noc(-c3sccc3Br)n2)cc1
GI50 (T47D): 0.57 µM | GI50 (NCI-H1299): > 10 µM | GI50 (DLD-1): 0.58 µM

COc1ccc(-c2noc(-c3sccc3Cl)n2)cc1
GI50 (T47D): 0.52 µM | GI50 (NCI-H1299): > 10 µM | GI50 (DLD-1): 0.93 µM

Clc1ccc(-c2noc(-c3occc3Cl)n2)cc1
GI50 (T47D): 0.12 µM | GI50 (NCI-H1299): > 10 µM | GI50 (DLD-1): 0.51 µM | Inhibition (Mus musculus): 83%

Clc1ccc(-c2noc(-c3occc3Br)n2)nc1
GI50 (T47D): 0.38 µM | GI50 (NCI-H1299): > 10 µM | GI50 (DLD-1): 0.43 µM

Clc1ccc(-c2noc(-c3sccc3Cl)n2)nc1
GI50 (T47D): 0.2 µM | GI50 (NCI-H1299): > 10 µM | GI50 (DLD-1): 0.8 µM

Clc1ccc(-c2noc(-c3occc3Cl)n2)nc1
GI50 (T47D): 13 µM | GI50 (NCI-H1299): > 10 µM | GI50 (DLD-1): 0.6 µM

Source: ChEMBL document CHEMBL1141144, “Discovery and structure-activity relationship of 3-aryl-5-aryl-1,2,4-oxadiazoles as a new series of apoptosis inducers and potential anticancer agents” (J Med Chem, 2005)
